Reference: PubChem BioAssay AID248 (DTP/NCI, 2004)
Where “and” joins values, the source holds several entries; their conditions need not be identical. Equal entries are not always repeated. Inconclusive results and toxic doses are left out. Rule as the data show it: active = T/C of 150% or more; inactive = T/C below 125%.

Tested on: L1210 leukemia ip in BDF1 mice, survival T/C
Experiment: NCI In Vivo Anticancer Drug Screen. Data for tumor model L1210 Leukemia (intraperitoneal) in B6D2F1 (BDF1) mice
Settings: endpoint: mean survival time, higher = longer survival
Procedure, shortened: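 Antitumor effect is assessed in tumor-bearing animals. Survival in the compound arm is compared with a vehicle-dosed control arm and expressed as their quotient.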

[1] = dose: 100.0 mg/kg/injection, schedule: Q04DX003 (ip), vehicle: saline
[2] = dose: 200.0 mg/kg/injection, schedule: Q04DX003 (ip), vehicle: saline
[3] = dose: 400.0 mg/kg/injection, schedule: Q04DX003 (ip), vehicle: saline
[4] = dose: 100.0 mg/kg/injection, schedule: Q01DX009 (ip), vehicle: Klucel (hydroxypropylcellulose) (HPC)
[5] = dose: 100.0 mg/kg/injection, schedule: Q04DX003 (ip), vehicle: Klucel (hydroxypropylcellulose) (HPC)
[6] = dose: 200.0 mg/kg/injection, schedule: Q04DX003 (ip), vehicle: Klucel (hydroxypropylcellulose) (HPC)
[7] = dose: 400.0 mg/kg/injection, schedule: Q04DX003 (ip), vehicle: Klucel (hydroxypropylcellulose) (HPC)
[8] = dose: 100.0 mg/kg/injection, schedule: Q01DX009 (ip), vehicle: saline with Tween-80
[9] = dose: 100.0 mg/kg/injection, schedule: Q04DX002 (ip), vehicle: saline with Tween-80
[10] = dose: 100.0 mg/kg/injection, schedule: Q04DX003 (ip), vehicle: saline with Tween-80
[11] = dose: 200.0 mg/kg/injection, schedule: Q01DX009 (ip), vehicle: saline with Tween-80
[12] = dose: 200.0 mg/kg/injection, schedule: Q04DX003 (ip), vehicle: saline with Tween-80
[13] = dose: 400.0 mg/kg/injection, schedule: Q01DX009 (ip), vehicle: saline with Tween-80
[14] = dose: 400.0 mg/kg/injection, schedule: Q04DX003 (ip), vehicle: saline with Tween-80
[15] = dose: 10.0 mg/kg/injection, schedule: Q01DX001 (ip), vehicle: saline
[16] = dose: 20.0 mg/kg/injection, schedule: Q01DX001 (ip), vehicle: saline
[17] = dose: 100.0 mg/kg/injection, schedule: Q01DX001 (ip), vehicle: carboxymethylcellulose (CMC)
[18] = dose: 200.0 mg/kg/injection, schedule: Q01DX001 (ip), vehicle: carboxymethylcellulose (CMC)
[19] = dose: 400.0 mg/kg/injection, schedule: Q01DX001 (ip), vehicle: carboxymethylcellulose (CMC)
[20] = dose: 100.0 mg/kg/injection, schedule: Q04DX002 (ip), vehicle: saline
[21] = dose: 200.0 mg/kg/injection, schedule: Q04DX002 (ip), vehicle: saline

Measured: T/C

O=C(/C=C/c1ccccc1)NC12CC3CC(CC(C3)C1)C2
inactive: [1] 91 % of control | [2] 93 % of control | [3] 100 % of control

Cc1c(NC(=O)Nc2ccccc2F)c(=O)n(-c2ccccc2)n1C
inactive: dose: 100.0 mg/kg/injection, schedule: Q01DX001 (ip), vehicle: saline 101 % of control | dose: 100.0 mg/kg/injection, schedule: Q01DX009 (ip), vehicle: acetone 86 % of control | [1] 112 % of control | dose: 200.0 mg/kg/injection, schedule: Q01DX001 (ip), vehicle: saline 95 % of control and 91 % of control | [2] 91 % of control | dose: 400.0 mg/kg/injection, schedule: Q01DX001 (ip), vehicle: saline 97 % of control and 98 % of control | [3] 95 % of control

Cc1cccc(C)c1Nc1cc(=O)[nH]c(=O)[nH]1
inactive: dose: 75.0 mg/kg/injection, schedule: Q01DX001 (ip), vehicle: saline with Tween-80 106 % of control | dose: 150.0 mg/kg/injection, schedule: Q01DX001 (ip), vehicle: saline with Tween-80 89 % of control | dose: 300.0 mg/kg/injection, schedule: Q01DX001 (ip), vehicle: saline with Tween-80 96 % of control

Cc1ccc(C(=O)NS(=O)(=O)c2ccc(C)cc2)cc1
inactive: [4] 91 % of control | [5] 101 % of control | dose: 200.0 mg/kg/injection, schedule: Q01DX009 (ip), vehicle: Klucel (hydroxypropylcellulose) (HPC) 105 % of control | [6] 103 % of control | [7] 104 % of control

CCOC(=O)c1ccc(NC(=O)Oc2ccccc2C(C)C)cc1
inactive: [8] 97 % of control and 107 % of control | [9] 101 % of control | [10] 97 % of control | [11] 93 % of control and 97 % of control | dose: 200.0 mg/kg/injection, schedule: Q04DX002 (ip), vehicle: saline with Tween-80 92 % of control | [12] 93 % of control | [13] 89 % of control | dose: 400.0 mg/kg/injection, schedule: Q04DX002 (ip), vehicle: saline with Tween-80 92 % of control | [14] 102 % of control

COc1cc2cc(-c3cc(OC)c(OC)c(OC)c3)c3c(c2cc1OC)CNC3=O
inactive: dose: 100.0 mg/kg/injection, schedule: Q01DX009 (ip), vehicle: saline 90 % of control | [1] 93 % of control | dose: 200.0 mg/kg/injection, schedule: Q01DX009 (ip), vehicle: saline 90 % of control | [2] 101 % of control | [3] 101 % of control

N#Cc1[nH]cnc1[N+]#N
inactive: dose: 3.0 mg/kg/injection, schedule: Q01DX009 (ip), vehicle: saline with Tween-80 103 % of control | dose: 3.0 mg/kg/injection, schedule: Q04DX003 (ip), vehicle: other 108 % of control | dose: 6.0 mg/kg/injection, schedule: Q01DX009 (ip), vehicle: saline with Tween-80 105 % of control | dose: 6.0 mg/kg/injection, schedule: Q04DX003 (ip), vehicle: other 103 % of control | dose: 12.0 mg/kg/injection, schedule: Q01DX009 (ip), vehicle: saline with Tween-80 91 % of control | dose: 12.0 mg/kg/injection, schedule: Q04DX003 (ip), vehicle: other 108 % of control | dose: 12.5 mg/kg/injection, schedule: Q01DX001 (ip), vehicle: other 94 % of control

C=CC12CN(C)C3C4COC(CC41)C1(C(=O)Nc4ccccc41)C32 (centres undefined)
inactive: dose: 75.0 mg/kg/injection, schedule: Q01DX001 (ip), vehicle: other 102 % of control

C[CH2][Sb]([Cl])([CH2]C)([CH2]C)[O][Sb]([Cl])([CH2]C)([CH2]C)[CH2]C
inactive: [15] 109 % of control | [16] 114 % of control | dose: 40.0 mg/kg/injection, schedule: Q01DX001 (ip), vehicle: saline 123 % of control

O=C(O)CC(SC(CC(=O)O)C(F)(F)C(F)(F)C(F)(F)F)C(F)(F)C(F)(F)C(F)(F)F (centres undefined)
inactive: [8] 94 % of control | [5] 108 % of control | [11] 97 % of control | [6] 97 % of control | [13] 94 % of control | [7] 88 % of control

C1O[C@@H]1[C@H]1CO1
inactive: dose: 9.5 mg/kg/injection, schedule: Q01DX001 (ip), vehicle: saline 100 % of control | dose: 19.0 mg/kg/injection, schedule: Q01DX001 (ip), vehicle: saline 97 % of control | dose: 38.0 mg/kg/injection, schedule: Q01DX001 (ip), vehicle: saline 101 % of control

N#Cc1ccccc1-c1ccccc1C#N
inactive: [17] 105 % of control | [18] 107 % of control | [19] 107 % of control

O=C1OC(=O)C(Cl)=C1Cl
inactive: dose: 25.0 mg/kg/injection, schedule: Q04DX002 (ip), vehicle: saline with Tween-80 97 % of control | dose: 50.0 mg/kg/injection, schedule: Q04DX002 (ip), vehicle: saline with Tween-80 93 % of control | [9] 104 % of control and 112 % of control

C1CCC(C2CCCC[N-]2)[N-]C1.C1CCC(C2CCCC[N-]2)[N-]C1.C1CCC(C2CCCC[N-]2)[N-]C1.[Fe+6] (centres undefined)
inactive: [15] 98 % of control | [16] 104 % of control

Cc1nccn1C(/C(=N/O)c1ccccc1)c1ccccc1 (centres undefined)
inactive: [8] 96 % of control | [11] 96 % of control | [13] 94 % of control

O=[N+]([O-])c1ccc(Cl)c(OCCBr)c1
inactive: dose: 100.0 mg/kg/injection, schedule: Q01DX009 (ip), vehicle: gum acacia 95 % of control | dose: 200.0 mg/kg/injection, schedule: Q01DX009 (ip), vehicle: gum acacia 94 % of control | dose: 400.0 mg/kg/injection, schedule: Q01DX009 (ip), vehicle: gum acacia 89 % of control

[O-][N+](=C1c2ccccc2-c2ccccc21)c1ccccc1
inactive: [1] 94 % of control | [2] 92 % of control | [3] 94 % of control

Cc1ccc(C(=O)CCC(=O)O)cc1
inactive: [10] 102 % of control | [12] 98 % of control | [14] 94 % of control

Cc1cccc2ccc3ccc4ccccc4c3c12
inactive: [10] 96 % of control | [12] 89 % of control | [14] 92 % of control

CCN(CC)C(=O)C1CCCCC1C (centres undefined)
inactive: [20] 111 % of control | [21] 105 % of control

NC(CO)CO
inactive: [20] 105 % of control | [21] 108 % of control | dose: 400.0 mg/kg/injection, schedule: Q04DX002 (ip), vehicle: saline 105 % of control

CCOC(=O)NC(NC(=O)OCC)C(NC(=O)OCC)NC(=O)OCC
inactive: [17] 87 % of control | [18] 91 % of control | [19] 91 % of control

COc1ccc(OC)c(NC(=O)CCl)c1
inactive: dose: 25.0 mg/kg/injection, schedule: Q01DX009 (ip), vehicle: Klucel (hydroxypropylcellulose) (HPC) 96 % of control | dose: 25.0 mg/kg/injection, schedule: Q04DX002 (ip), vehicle: Klucel (hydroxypropylcellulose) (HPC) 96 % of control | dose: 50.0 mg/kg/injection, schedule: Q01DX009 (ip), vehicle: Klucel (hydroxypropylcellulose) (HPC) 98 % of control | dose: 50.0 mg/kg/injection, schedule: Q04DX002 (ip), vehicle: Klucel (hydroxypropylcellulose) (HPC) 93 % of control | [4] 89 % of control and 90 % of control | dose: 100.0 mg/kg/injection, schedule: Q04DX002 (ip), vehicle: Klucel (hydroxypropylcellulose) (HPC) 93 % of control and 106 % of control
